The values that follow come from the supplement of paper PMC11208160.
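Note: IS621 recombinase and bridge RNA in Escherichia coli cells.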

This data set can be described thus: recombinant barcode read abundance after kanamycin selection (control-corrected) (log10(CPM+1)); higher = more efficient recombination; sequences stand for … in AGTGCAGAGAAAATCGGCCAGTTTTCTCTGCCTGCAGTCCGCATGCCGT…AGATTTATGCAGCGGACTGCCTTTCTCCCAAAGTGATAAACCGGACAGTATCATGGACCGGTTTTCCCGGTAATCCGTATTTGCAAGGTTGGTTTCACT; site = the 11-nt target. The method in brief:
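In E. coli, a pooled library matched targets to IS621 bridge RNA target-binding loops and was introduced alongside a donor plasmid. Cells went onto chloramphenicol/ampicillin/kanamycin with 0.1 mM IPTG or onto chloramphenicol/ampicillin LB agar as control, in duplicate. Recombination efficiency, from recombinant-junction barcodes as counts per million, is averaged and control-corrected. It is reported as log10(CPM+1).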
“GGGGCACCTTGGGTTCTAACCTGTTGCAT (site GGGGCACCTAT)”: the “recombinant barcode read abundance (log10)” value came out at 2.89. For “GGGGCCTCTTGGGTTCTAACCTGTTGCTT (site GGGGCATCTAA)”, the “recombinant barcode read abundance (log10)” value was found to be 0.481. Regarding “GGGGCCTCTTGGGTTCTAACCTGTTGCTT (site GGGGCCTCTAA)”, the “recombinant barcode read abundance (log10)” value was 2.59. For the sequence “GGGGCCTCTTGGGTTCTAACCTGTTGCTT (site GGGGCGTCTAA)”, the “recombinant barcode read abundance (log10)” value came out at 0.225.

Turning to “GGGGCCTCTTGGGTTCTAACCTGTTGCTT (site GGGGCTTCTAA)”, the “recombinant barcode read abundance (log10)” value was found to be 0.398. In the case of “GGGGCGGCTTGGGTTCTAACCTGTTGCCT (site GGGGCGACTAG)”, the “recombinant barcode read abundance (log10)” value stood at 0.489. As to “GGGGCGGCTTGGGTTCTAACCTGTTGCCT (site GGGGCGCCTAG)”, the “recombinant barcode read abundance (log10)” value was determined as 0.0428. Consider “GGGGCGGCTTGGGTTCTAACCTGTTGCCT (site GGGGCGGCTAG)”, for which the “recombinant barcode read abundance (log10)” value amounted to 1.8. With “GGGGCGGCTTGGGTTCTAACCTGTTGCCT (site GGGGCGTCTAG)”, the “recombinant barcode read abundance (log10)” value is 0.242. Regarding “GGGGCGTCTTGGGTTCTAACCTGTTGCCG (site GGGCAGTCTCG)”, the “recombinant barcode read abundance (log10)” value was 0.201.

As to “GGGGCGTCTTGGGTTCTAACCTGTTGCCG (site GGGGCGTCTCG)”, the “recombinant barcode read abundance (log10)” value worked out at 1.63.

Consider “GGGGCGTCTTGGGTTCTAACCTGTTGCCT (site GGGGCGACTAG)”, for which the “recombinant barcode read abundance (log10)” value was 0.167.

Turning to “GGGGCGTCTTGGGTTCTAACCTGTTGCCT (site GGGGCGCCTAG)”, the “recombinant barcode read abundance (log10)” value worked out at 0.426. “GGGGCGTCTTGGGTTCTAACCTGTTGCCT (site GGGGCGGCTAG)”: the “recombinant barcode read abundance (log10)” value worked out at 0.172. Consider “GGGGCGTCTTGGGTTCTAACCTGTTGCCT (site GGGGCGTCTAG)”, for which the “recombinant barcode read abundance (log10)” value turned out to be 1.55. As to “GGGGCGTCTTGGGTTCTAACCTGTTGCTG (site GGGGCGTCTCA)”, the “recombinant barcode read abundance (log10)” value stood at 2.44.

As to “GGGGCGTCTTGGGTTCTAACCTGTTGCTG (site TCCATAACTAG)”, the “recombinant barcode read abundance (log10)” value was 0.175. The figure for “GGGGCTTCTTGGGTTCTAACCTGTTGCCT (site GAGGCTTCTAG)” is 0.0126; for “GGGGCTTCTTGGGTTCTAACCTGTTGCCT (site GCGGCTTCTAG)” it is 0.207; for “GGGGCTTCTTGGGTTCTAACCTGTTGCCT (site GGGGCTTCTAG)” it is 0.919. With “GGGGCTTCTTGGGTTCTAACCTGTTGCCT (site GTGGCTTCTAG)” the figure was 0.245; with “GGGGTATCTTGGGTTCTAACCTGTTGCCT (site GCGGTATCTAG)”, 0.0929. “GGGGTATCTTGGGTTCTAACCTGTTGCCT (site GGGGTATCTAG)”: the “recombinant barcode read abundance (log10)” value was 1.21. Turning to “GGGTAAACTTGGGTTCTAACCTGTTGCCT (site GGGTAAACTAG)”, the “recombinant barcode read abundance (log10)” value worked out at 0.953.

For the sequence “GGGTAAACTTGGGTTCTAACCTGTTGCCT (site GGGTAATCTAG)”, the “recombinant barcode read abundance (log10)” value is 0.702. Take “GGGTAACCTTGGGTTCTAACCTGTTGCCT (site AGGTAACCTAG)”: the “recombinant barcode read abundance (log10)” value is 0. “GGGTAACCTTGGGTTCTAACCTGTTGCCT (site CGGTAACCTAG)”: the “recombinant barcode read abundance (log10)” value stood at 0.064. For “GGGTAACCTTGGGTTCTAACCTGTTGCCT (site GGGTAACCTAG)”, the “recombinant barcode read abundance (log10)” value was 0.406. With “GGGTAACCTTGGGTTCTAACCTGTTGCCT (site TGGTAACCTAG)” the figure was 0.19; with “GGGTCCACTTGGGTTCTAACCTGTTGCCA (site GGGTCCACTCC)”, 0.127; with “GGGTCCACTTGGGTTCTAACCTGTTGCCA (site GGGTCCACTTG)”, 1.44. For “GGGTCCTCTTGGGTTCTAACCTGTTGCCA (site GGGTCCTCTAG)”, the “recombinant barcode read abundance (log10)” value was 1.69. As to “GGGTCCTCTTGGGTTCTAACCTGTTGCCA (site GGGTCCTCTCG)”, the “recombinant barcode read abundance (log10)” value was found to be 0.29.

For the sequence “GGGTCCTCTTGGGTTCTAACCTGTTGCCA (site GGGTCCTCTGG)”, the “recombinant barcode read abundance (log10)” value turned out to be 0.0677.

Turning to “GGGTCCTCTTGGGTTCTAACCTGTTGCCA (site GGGTCCTCTTG)”, the “recombinant barcode read abundance (log10)” value worked out at 1.29.

With “GGGTCCTCTTGGGTTCTAACCTGTTGCCT (site GGGTCCTCTAG)”, the “recombinant barcode read abundance (log10)” value turned out to be 2.24. The figure for “GGGTCCTCTTGGGTTCTAACCTGTTGCCT (site GGGTCCTCTCG)” is 0.776.

For the sequence “GGGTCCTCTTGGGTTCTAACCTGTTGCCT (site GGGTCCTCTGG)”, the “recombinant barcode read abundance (log10)” value is 0.578. “GGGTCCTCTTGGGTTCTAACCTGTTGCCT (site GGGTCCTCTTG)”: the “recombinant barcode read abundance (log10)” value was found to be 0.155. In the case of “GGGTCGGCTTGGGTTCTAACCTGTTGCGA (site GGGTCGGCTAC)”, the “recombinant barcode read abundance (log10)” value turned out to be 0.231. Turning to “GGGTCGGCTTGGGTTCTAACCTGTTGCGA (site GGGTCGGCTCC)”, the “recombinant barcode read abundance (log10)” value turned out to be 0.552. The figure for “GGGTCGGCTTGGGTTCTAACCTGTTGCGA (site GGGTCGGCTGC)” is 0.179; for “GGGTCGGCTTGGGTTCTAACCTGTTGCGA (site GGGTCGGCTTC)” it is 2.27. Turning to “GGTAAAGCTTGGGTTCTAACCTGTTGCCT (site GGTAAAGCTAG)”, the “recombinant barcode read abundance (log10)” value was determined as 0.71. With “GGTAAAGCTTGGGTTCTAACCTGTTGCCT (site GGTATAGCTAG)” the figure was 0.216. As for “GGTAATACTTGGGTTCTAACCTGTTGCAT (site AACGTACCTTG)”, the “recombinant barcode read abundance (log10)” value worked out at 0.191.

On to “GGTAATACTTGGGTTCTAACCTGTTGCAT (site GGTAATACTAT)”, for which the “recombinant barcode read abundance (log10)” value is 0.957.

“GGTACGCCTTGGGTTCTAACCTGTTGCAT (site GGTACGACTCT)”: the “recombinant barcode read abundance (log10)” value stood at 0.17.

“GGTACGCCTTGGGTTCTAACCTGTTGCAT (site GGTACGCCTAT)”: the “recombinant barcode read abundance (log10)” value came out at 0.685. As to “GGTAGGACTTGGGTTCTAACCTGTTGCCT (site AGTAGGACTAG)”, the “recombinant barcode read abundance (log10)” value was 0.239. “GGTAGGACTTGGGTTCTAACCTGTTGCCT (site CGTAGGACTAG)”: the “recombinant barcode read abundance (log10)” value amounted to 0.0936. Regarding “GGTAGGACTTGGGTTCTAACCTGTTGCCT (site GGTAGGACTAG)”, the “recombinant barcode read abundance (log10)” value is 0.278. As for “GGTAGGACTTGGGTTCTAACCTGTTGCCT (site TGTAGGACTAG)”, the “recombinant barcode read abundance (log10)” value is 0.0335.

With “GGTATGACTTGGGTTCTAACCTGTTGCCT (site AGTATGACTAG)”, the “recombinant barcode read abundance (log10)” value was determined as 0.595. The figure for “GGTATGACTTGGGTTCTAACCTGTTGCCT (site CGTATGACTAG)” is 0.197; for “GGTATGACTTGGGTTCTAACCTGTTGCCT (site GGTATGACTAG)” it is 0.956. For “GGTATGACTTGGGTTCTAACCTGTTGCCT (site TGTATGACTAG)”, the “recombinant barcode read abundance (log10)” value stood at 0.0723. On to “GGTATGTCTTGGGTTCTAACCTGTTGCCT (site AGTATGTCTAG)”, for which the “recombinant barcode read abundance (log10)” value is 0.204.

Turning to “GGTATGTCTTGGGTTCTAACCTGTTGCCT (site CGTATGTCTAG)”, the “recombinant barcode read abundance (log10)” value is 0.0446.
